Experimental data published in patent US7825128B2, “Sulfoximine-substituted pyrimidines, processes for production thereof and use thereof as drugs” (Bayer Schering Pharma AG, priority 2005, dated 2010).
Each block holds one compound with its values, some of them ahead of it.

Legend:
Format in all cases: biochemical
[1] = target: T1, Aurora-C (Homo sapiens, UniProt Q9UQB9); assay: Aurora-C kinase assay; conditions: 3 μM ATP
T1 construct: made in house; host or cells: transiently transfected HEK293 cells
T1 sequence (Q9UQB9 1-309): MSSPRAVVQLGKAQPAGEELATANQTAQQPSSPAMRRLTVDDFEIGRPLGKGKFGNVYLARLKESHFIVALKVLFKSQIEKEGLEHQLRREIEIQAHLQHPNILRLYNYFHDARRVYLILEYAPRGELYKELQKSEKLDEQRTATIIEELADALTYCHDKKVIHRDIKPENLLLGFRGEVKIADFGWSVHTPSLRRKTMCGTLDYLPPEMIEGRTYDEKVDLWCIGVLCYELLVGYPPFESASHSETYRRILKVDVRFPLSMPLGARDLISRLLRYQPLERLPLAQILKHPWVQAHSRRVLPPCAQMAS
Protocol: Recombinant Aurora-C Protein was expressed in transiently transfected HEK293 cells and then purified. As the kinase substrate, the biotinylated peptide with the amino acid sequence biotin-FMRLRRLSTKYRT, which was purchased from the company Jerini AG in Berlin, was used.
Aurora-C [5 nM in the test mixture, test volume 5 μl] was incubated for 90 mins at 22° C. in the presence of different concentrations of test substances (0 μM, and 10 data points within the range 0.001-20 μM in duplicate values) in assay buffer [25 mM HEPES pH 7.4, 0.5 mM MnCl2, 0.1 mM Na orthovanadate, 2.0 mM dithiothreitol, 0.05% bovine serum albumin (BSA), 0.01% Triton X-100, 3 μM adenosine trisphosphate (ATP), 0.67 nCi/μl gama-P33-ATP, 2.0 μM substrate peptide biotin-FMRLRRLSTKYRT, 1.0% dimethylsulfoxide]. The reaction was stopped by addition of 12.5 μl of an EDTA/detection solution [16 mM EDTA, 40 mM ATP, 0.08% Triton X-100, 4 mg/ml PVT-streptavidin-SPA beads (Amersham Co.)]. After 10 minutes' incubation, the SPA beads were pelleted by 10-minute centrifugation at 1000×G. The measurement was performed in a Topcount scintillation meter from the Perkin Elmer company. […] The IC50 values were determined by a 4-parameter fit using in-house software. […]

[2] = target: T2, ITK (Homo sapiens, UniProt Q08881); assay: ITK kinase assay a) (polyGT, FRET); conditions: polyGT substrate, 1.3 μM ATP
T2 sequence (Q08881 1-620): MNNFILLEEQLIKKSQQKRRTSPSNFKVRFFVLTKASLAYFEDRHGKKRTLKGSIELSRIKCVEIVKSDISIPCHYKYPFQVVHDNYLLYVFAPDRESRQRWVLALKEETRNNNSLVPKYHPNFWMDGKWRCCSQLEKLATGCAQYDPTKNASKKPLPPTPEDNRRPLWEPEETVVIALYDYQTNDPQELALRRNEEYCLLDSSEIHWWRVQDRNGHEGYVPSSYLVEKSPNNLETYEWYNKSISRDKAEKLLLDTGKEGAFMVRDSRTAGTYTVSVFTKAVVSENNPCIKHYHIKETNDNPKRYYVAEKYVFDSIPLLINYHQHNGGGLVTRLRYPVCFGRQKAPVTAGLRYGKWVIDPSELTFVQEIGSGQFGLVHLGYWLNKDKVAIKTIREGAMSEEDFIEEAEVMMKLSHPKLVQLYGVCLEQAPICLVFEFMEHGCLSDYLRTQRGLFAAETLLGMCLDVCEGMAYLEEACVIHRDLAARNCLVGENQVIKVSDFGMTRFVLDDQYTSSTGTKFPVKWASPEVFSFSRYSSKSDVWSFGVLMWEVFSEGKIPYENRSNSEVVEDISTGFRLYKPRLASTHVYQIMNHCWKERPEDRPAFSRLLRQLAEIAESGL
Protocol: For the determination of the kinase activity of ITK, the phosphorylation of polyGT is measured. In the kinase reaction, 106 pM ITK, 1.3 μM ATP and 20 nM polyGT are used. The reaction runs for 20 mins at RT and is then stopped by addition of EDTA (final concentration 60 mM).
The reaction buffer contains 50 mM TrisCL pH7.5, 10 mM MnCl2, 10% glycerine, 1 mM DTT, 0.1% Tween-20 and 0.1 mM Na3V04 and a protease inhibitor cocktail (“complete”, Roche diagnostics)
The measurement of the enzyme activity is effected by the determination of the phosphorylated substrates. The poly GT substrate used is biotinylated. The measurement is performed in a FRET-based assay, wherein an anti-phospho-tyrosine antibody recognises and binds the phosphorylated substrate poly GT.
The bound antibody is now in the spatial vicinity of a streptavidin-coupled fluorescence dye, which was bound to polyGt by biotin-streptavidin interaction. On excitation of the europium chelate on the phosphotyrosine antibody with […] UV light, light of the wavelength 620 nm is emitted, which in turn excites the dye XLent, which then emits light of longer wavelength (665 nm).
The detection reagents are added in 50 mM Hepes pH 7.0 with 0.1% BSA. […]
After addition of the detection reagents, the samples stand overnight at 4 degrees Celsius, in order to form the FRET-creating complexes. For example, an IC50=4 μM was measured for Example 1.7.

[3] = target: T3, human Itk (Homo sapiens, UniProt Q08881); assay: ITK kinase assay b) (Itk HTRF assay); conditions: biotinylated myelin basic protein, 10 μM ATP
T3 construct: kinase domain of the human Itk (amino acids 352-617); 6His (N); purchased Upstate (Dundee, UK); host or cells: baculovirus infected SF21 cells
T3 sequence (Q08881 352-617): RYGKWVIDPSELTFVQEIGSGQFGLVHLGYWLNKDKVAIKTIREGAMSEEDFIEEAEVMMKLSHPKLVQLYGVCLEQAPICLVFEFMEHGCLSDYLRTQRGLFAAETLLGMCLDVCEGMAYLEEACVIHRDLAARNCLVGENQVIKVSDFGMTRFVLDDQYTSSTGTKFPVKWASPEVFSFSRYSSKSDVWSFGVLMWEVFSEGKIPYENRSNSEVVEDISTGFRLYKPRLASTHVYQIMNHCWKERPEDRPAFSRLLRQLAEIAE
Description: Itk inhibitory activity of compounds of the present invention was quantified employing the Itk HTRF assay as described in the following paragraphs.
N-terminal 6His-tagged recombinant kinase domain of the human Itk (amino acids 352-617) expressed in baculovirus infected SF21 cells and purified using Ni^2+/NTA agarose was purchased form Upstate (Dundee, UK) and used as kinase. As substrate for the kinase reaction the biotinylated myelin basic protein was used which can be purchased form GE Healthcare (Freiburg i. Br., Germany). […]
The resulting mixture was incubated 1 h at 22° C. to allow the binding of the biotinylated phosphorylated substrate to the streptavidine-XLent and the PT66-Eu-Chelate. Subsequently the amount of phosphorylated substrate was evaluated by measurement of the resonance energy transfer from the PT66-Eu-Chelate to the streptavidine-XLent. Therefore, the fluorescence emissions at 620 nm and 665 nm after excitation at 350 nm was measured in a HTRF reader, e.g. a Rubystar (BMG Labtechnologies, Offenburg, Germany) or a Viewlux (Perkin-Elmer). […] The data were normalised (enzyme reaction without inhibitor=0% inhibition, all other assay components but no enzyme=100% inhibition) and IC50 values were calculated by a 4 parameter fit using an inhouse software.

[4] = target: T4, CDK2/CycE (Homo sapiens, UniProt P24941); assay: CDK2/CycE kinase assay; conditions: 0.5 μM ATP, Histone IIIS substrate
T4 construct: GST; purchased ProQinase GmbH, Freiburg; host or cells: Baculovirus-infected Sf9 insect cells
Protocol: Recombinant CDK2- and CycE-GST fusion proteins, purified from Baculovirus-infected insect cells (Sf9), were purchased from ProQinase GmbH, Freiburg. Histone IIIS, which was used as the kinase substrate, was purchased from the Sigma Co.
CDK2/CycE (50 ng/data point) was incubated for 10 mins at 22° C. in the presence of different concentrations of test substances (0 μM, and within the range 0.01-100 μM) in assay buffer [50 mM tris/HCl pH8.0, 10 mM MgCl2, 0.1 mM Na orthovanadate, 1.0 mM dithiothreitol, 0.5 μM ATP, 10 μg/data point Histone IIIS, 0.2 μCi/data point ^33P-gamma ATP, 0.05% NP40, 1.25% dimethylsulfoxide]. The reaction was stopped by addition of EDTA solution (250 mM, pH8.0, 15 μl/data point).
15 μl of each reaction mixture was applied onto P30 filter strips (Wallac Co.), and non-incorporated ^33P-ATP was removed by washing the filter strips three times, for 10 mins each time, in 0.5% phosphoric acid. After drying of the filter strips for 1 hour at 70° C., the filter strips were covered with scintillator strips (MeltiLex™ A, Wallac Co.) and baked for 1 hour at 90° C. The quantity of incorporated ^33P (substrate phosphorylation) was determined by scintillation measurement in a gamma radiation meter (Wallac).

[5] = target: T5, Tie-2 (Homo sapiens, UniProt Q02763); assay: Tie-2 kinase assay without prior activation of the kinase; conditions: 10 μM ATP
T5 construct: consisting of GST and the intracellular domain of Tie-2; made in house; host or cells: insect cells (Hi-5)
Description: For the kinase assay, a recombinant fusion protein expressed in insect cells (Hi-5) and purified by glutathione-sepharose affinity chromatography, consisting of GST and the intracellular domain of Tie-2, was used. Alternatively, commercially available GST-Tie2 fusion protein (Upstate Biotechnology, Dundee, Scotland) can be used. As the substrate for the kinase reaction, the biotinylated peptide biotin-Ahx-EPKDDAYPLYSDFG (C-terminus in amide form), which can be acquired e.g. from the company Biosyntan GmbH (Berlin-Buch, Germany) was used. […]
The resulting mixture was incubated for 1 hr at 22° C. in order to allow the binding of the biotinylated phosphorylated peptide to the streptavidin-XLent and the PT66-Eu-chelate. After this, the quantity of the phosphorylated substrate peptide was determined by measurement of the resonance energy transfer from the PT66-Eu chelate to the streptavidin-XLent. For this purpose, the fluorescence emission at 620 nm and 665 nm after excitation at 350 nm was measured in a HTRF meter, e.g. Rubystar (BMG Labtechnologies, Offenburg, Germany) or Viewlux (Perkin-Elmer). The ratio of the emissions at 665 nm and at […] was used as a measure of the quantity of the phosphorylated substrate peptide. […]

T5 sequence (Q02763 770-1124 limits assumed, species assumed): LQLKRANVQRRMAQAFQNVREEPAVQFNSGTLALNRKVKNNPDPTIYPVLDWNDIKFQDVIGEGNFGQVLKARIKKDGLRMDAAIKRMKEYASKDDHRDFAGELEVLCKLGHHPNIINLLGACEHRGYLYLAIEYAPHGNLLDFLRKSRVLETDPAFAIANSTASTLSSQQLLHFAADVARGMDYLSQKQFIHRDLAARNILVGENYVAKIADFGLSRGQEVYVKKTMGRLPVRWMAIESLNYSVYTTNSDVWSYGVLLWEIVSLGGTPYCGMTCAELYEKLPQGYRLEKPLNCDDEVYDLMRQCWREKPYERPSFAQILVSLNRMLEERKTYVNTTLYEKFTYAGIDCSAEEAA

- IC50 [1]: 2000 nM
Compound: CCOC(=O)N=S(C)(=O)c1ccc(Nc2ncc(-c3cccs3)c(N[C@H](C)CO)n2)cc1 (mixture of isomers) [Example 1.1, (RS)—N-(ethoxycarbonyl)-S-(4-{[4-{[(R)-2-hydroxy-1-methylethyl]amino}-5-(2-thienyl)pyrimidine-2-yl]amino}phenyl)-S-methylsulfoximide]

- IC50 [2]: 4 µM
- IC50 [3]: 400 nM
Compound: CCOC(=O)N=S(C)(=O)c1ccc(Nc2ncc(-c3cccs3)c(N[C@H](CC)CO)n2)cc1Br (mixture of isomers) [Example 1.7, (RS)—S-{2-bromo-4-[(4-{[(R)-1-(hydroxymethyl)propyl]amino}-5-(2-thienyl)pyrimidine-2-yl)amino]phenyl}-N-(ethoxycarbonyl)-S-methylsulfoximide]

- IC50 [4]: 3 µM
Compound: CCS(=N)(=O)c1ccc(Nc2ncc(-c3ccsc3)c(N[C@H](CO)CC(C)C)n2)cc1 (mixture of isomers) [Example 5.3, (RS)—S-ethyl-S-(4-{[4-{[(S)-1-(hydroxymethyl)-3-methylbutyl]amino}-5-(3-thienyl)pyrimidine-2-yl]amino}phenyl)sulfoximide]

- IC50 [5]: 3 µM
Compound: CC[C@H](CO)Nc1nc(Nc2ccc(S(C)(=N)=O)c(Br)c2)ncc1-c1cccs1 (mixture of isomers) [Example 5.5, (RS)—S-{2-bromo-4-[(4-{[(R)-1-(hydroxymethyl)propyl]amino}-5-(2-thienyl)-pyrimidine-2-yl)amino]phenyl}-S-methylsulfoximide]
